“Also recorded” adds a separate entry of the source. Read-outs that look alike come from different tables or passages of the source.
Experiments:
Influenza A/Moscow/10/99 = assay type: cell-based; details: Citrate Buffer control
[1] = system: Influenza B/Guangdong/120/00; assay type: cell-based; details: Citrate Buffer control
influenza virus = assay type: in vivo, ferret; details: for Mean Difference (I−J), Weight Change separated into pens: pairwise comparison
[2] = recipient ferrets, 8 per group, >2SD rise in temperature

SMILES: O=C(O)CC(O)(CC(=O)O)C(=O)O [Citrate Buffer]
- A/Moscow log reductions (Influenza A/Moscow/10/99; 1 minute incubation): 1.00 −log10 TCID50
- Residual A/Moscow titer (Influenza A/Moscow/10/99; 1 minute incubation): 1.80 −log10 TCID50
- A/Moscow log reductions (Influenza A/Moscow/10/99; 2 minute incubation): 1.00 −log10 TCID50
- Residual A/Moscow titer (Influenza A/Moscow/10/99; 2 minute incubation): 1.80 −log10 TCID50
- A/Moscow log reductions (Influenza A/Moscow/10/99; 5 minute incubation): 2.80 −log10 TCID50
- Residual A/Moscow titer (Influenza A/Moscow/10/99; 5 minute incubation): 0.00 −log10 TCID50
- B/Guangdong log reductions ([1]; 1 minute incubation): 1.80 −log10 TCID50
- Residual B/Guangdong titer ([1]; 1 minute incubation): 0.00 −log10 TCID50
- B/Guangdong log reductions ([1]; 2 minute incubation): 1.80 −log10 TCID50
- Residual B/Guangdong titer ([1]; 2 minute incubation): 0.00 −log10 TCID50
- B/Guangdong log reductions ([1]; 5 minute incubation): 1.80 −log10 TCID50
- Residual B/Guangdong titer ([1]; 5 minute incubation): 0.00 −log10 TCID50

SMILES: CCOC(=O)C1=C[C@@H](OC(CC)CC)[C@H](NC(C)=O)[C@@H](N)C1 [Tamiflu]
- Mean Difference (I−J), Weight Change separated into pens (influenza virus; (I) treatment group minus (J) 25% horseradish): .161
- Mean Difference (I−J), Weight Change separated into pens (influenza virus; (I) treatment group minus (J) 50% horseradish): .497
- Mean Difference (I−J), Weight Change separated into pens (influenza virus; (I) treatment group minus (J) 100% Horseradish): .251
- Mean Difference (I−J), Weight Change separated into pens (influenza virus; (I) treatment group minus (J) PBS, recipient ferrets): −1.880

SMILES: CCOC(=O)C1=C[C@@H](OC(CC)CC)[C@H](NC(C)=O)[C@@H](N)C1 [Tamiflu ™, oseltamivir phosphate]
- No. of Ferrets per pen with Fever (>2SD rise), mild febrile illness (influenza virus; four recipient ferrets per pen, pens a and b): 2
- X^2 analysis of fever (2SD rise), p PBS versus treatment (influenza virus; in vivo): 0.106
- X^2 analysis of fever (3SD rise), p PBS versus treatment (influenza virus; in vivo): 0.106
- seroconversion of recipient ferrets (influenza virus; in vivo): did not seroconvert; also recorded: no seroconversion
- Mean Difference (I−J), Weight Change separated into pens (influenza virus; (I) group PBS minus (J) treatment group, recipient ferrets, weight loss peak to trough as percentage of day 0 baseline weight): −1.880
- weight loss, p PBS versus treatment (influenza virus; recipient ferrets): 0.003
- % within Group No., Fever => 2SD rise from baseline: No (influenza virus; [2]): 50%
- % within Group No., Fever => 2SD rise from baseline: yes (influenza virus; [2]): 50%
- Count of ferrets, Fever => 2SD rise from baseline: No (influenza virus; [2]): 4
- Count of ferrets, Fever => 2SD rise from baseline: yes (influenza virus; [2]): 4
- Weight Change separated into pens, Mean (influenza virus; recipient ferrets, peak to trough as a percentage of the baseline weight on day 0): −.980%
- No. of ferrets per group with Fever (>2SD rise), mild febrile illness (influenza virus; two pens per group): 4
- No. of ferrets per group with Fever (>3SD rise) (influenza virus; two pens per group): 1

Source: US7166435B2 (priority 2001, dated 2007)
